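The compound was tested at five concentrations on cells cultured in 96-well plates, with a 48-hour exposure period. Abbreviation: GI50, concentration required for 50% inhibition of growth.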 The source made the active and inactive calls. No stated cut-off is given here; in the data, active = GI50 up to about 1.1 µM and inactive = higher.
Assays:
Test in all cases: inhibition of tumour cell growth, NCI panel, 48 h
HT-29 = test system: HT-29
TK-10 = test system: TK-10
NCI-H522 = test system: NCI-H522
MOLT-4 = test system: MOLT-4
SN12C = test system: SN12C
M14 = test system: M14
RXF 393 = test system: RXF 393
SNB-75 = test system: SNB-75
MDA-MB-231 = test system: MDA-MB-231
UO-31 = test system: UO-31
OVCAR-4 = test system: OVCAR-4
SK-OV-3 = test system: SK-OV-3
PC-3 = test system: PC-3
MCF7 = test system: MCF7
NCI/ADR-RES = test system: NCI/ADR-RES
HCT-15 = test system: HCT-15
SK-MEL-28 = test system: SK-MEL-28
IGROV-1 = test system: IGROV-1
NCI-H460 = test system: NCI-H460
CCRF-CEM = test system: CCRF-CEM
SW-620 = test system: SW-620
OVCAR-5 = test system: OVCAR-5
HCC 2998 = test system: HCC 2998
MDA-N = test system: MDA-N
HOP-92 = test system: HOP-92
A549 = test system: A549
OVCAR-8 = test system: OVCAR-8
HL-60 = test system: HL-60
SF-295 = test system: SF-295
SK-MEL-5 = test system: SK-MEL-5
T47D = test system: T47D
Malme-3M = test system: Malme-3M
KM12 = test system: KM12
MDA-MB-435 = test system: MDA-MB-435
Hs-578T = test system: Hs-578T
NCI-H226 = test system: NCI-H226
HCT-116 = test system: HCT-116
EKVX = test system: EKVX
SNB-19 = test system: SNB-19
UACC-257 = test system: UACC-257
RPMI-8226 = test system: RPMI-8226
LOX IMVI = test system: LOX IMVI
UACC-62 = test system: UACC-62
ACHN = test system: ACHN
COLO 205 = test system: COLO 205
K562 = test system: K562
SK-MEL-2 = test system: SK-MEL-2
786-0 = test system: 786-0
HOP-62 = test system: HOP-62
BT-549 = test system: BT-549
SF-539 = test system: SF-539
SF-268 = test system: SF-268
CAKI-1 = test system: CAKI-1
U-251 = test system: U-251
DU-145 = test system: DU-145
SR = test system: SR
OVCAR-3 = test system: OVCAR-3
NCI-H23 = test system: NCI-H23
A498 = test system: A498

N#CCc1nc(-c2cc3ccccc3oc2=O)cs1
GI50 (HT-29): 54 µM (inactive) | GI50 (TK-10): > 100 µM (inactive) | GI50 (NCI-H522): 15.9 µM (inactive) | GI50 (MOLT-4): 16.6 µM (inactive) | GI50 (SN12C): > 100 µM (inactive) | GI50 (M14): 35.6 µM (inactive) | GI50 (RXF 393): > 100 µM (inactive) | GI50 (SNB-75): 19.1 µM (inactive) | GI50 (MDA-MB-231): 79.3 µM (inactive) | GI50 (UO-31): 40.4 µM (inactive) | GI50 (OVCAR-4): 44.1 µM (inactive) | GI50 (SK-OV-3): > 100 µM (inactive) | GI50 (PC-3): 29.8 µM (inactive) | GI50 (MCF7): 54.8 µM (inactive) | GI50 (NCI/ADR-RES): 79.6 µM (inactive) | GI50 (HCT-15): 35.8 µM | GI50 (SK-MEL-28): 37.3 µM (inactive) | GI50 (IGROV-1): 40.6 µM (inactive) | GI50 (NCI-H460): 75.2 µM (inactive) | GI50 (CCRF-CEM): 30.5 µM (inactive) | GI50 (SW-620): > 100 µM (inactive) | GI50 (OVCAR-5): > 100 µM (inactive) | GI50 (HCC 2998): > 100 µM (inactive) | GI50 (MDA-N): 37.2 µM (inactive) | GI50 (HOP-92): 41.7 µM (inactive) | GI50 (A549): > 100 µM (inactive) | GI50 (OVCAR-8): 63.2 µM (inactive) | GI50 (HL-60): 17.5 µM (inactive) | GI50 (SF-295): 72.6 µM (inactive) | GI50 (SK-MEL-5): 26.4 µM (inactive) | GI50 (T47D): 40.1 µM (inactive) | GI50 (Malme-3M): 65.8 µM (inactive) | GI50 (KM12): 26.7 µM (inactive) | GI50 (MDA-MB-435): 44.6 µM (inactive) | GI50 (Hs-578T): 56.9 µM (inactive) | GI50 (NCI-H226): 36.8 µM (inactive) | GI50 (HCT-116): 80.5 µM (inactive) | GI50 (EKVX): 41.4 µM (inactive) | GI50 (SNB-19): > 100 µM (inactive) | GI50 (UACC-257): 27.1 µM (inactive) | GI50 (RPMI-8226): 33.7 µM (inactive) | GI50 (LOX IMVI): 56.9 µM (inactive) | GI50 (UACC-62): 18.7 µM (inactive) | GI50 (ACHN): 42.5 µM (inactive) | GI50 (COLO 205): 67.3 µM (inactive) | GI50 (K562): 45.8 µM (inactive) | GI50 (SK-MEL-2): 25.4 µM (inactive) | GI50 (786-0): > 100 µM (inactive) | GI50 (HOP-62): 62.7 µM (inactive) | GI50 (BT-549): 17.9 µM (inactive) | GI50 (SF-539): 83.9 µM (inactive) | GI50 (SF-268): > 100 µM (inactive) | GI50 (CAKI-1): > 100 µM (inactive) | GI50 (U-251): > 100 µM (inactive) | GI50 (DU-145): > 100 µM (inactive) | GI50 (SR): 43.6 µM (inactive)

CCOC(=O)n1c2ccccc2c2c(O)c(OC)c3c(c21)C(=O)NC3=O
GI50 (HT-29): 24 µM (inactive) | GI50 (TK-10): 52.1 µM (inactive) | GI50 (NCI-H522): 22.6 µM (inactive) | GI50 (MOLT-4): 19.5 µM (inactive) | GI50 (SN12C): 83.6 µM (inactive) | GI50 (M14): 25.8 µM (inactive) | GI50 (SNB-75): 37.8 µM (inactive) | GI50 (MDA-MB-231): 20.6 µM (inactive) | GI50 (UO-31): 33.1 µM (inactive) | GI50 (OVCAR-4): 44.6 µM (inactive) | GI50 (SK-OV-3): 34.6 µM (inactive) | GI50 (PC-3): 45.8 µM (inactive) | GI50 (MCF7): 54.3 µM (inactive) | GI50 (NCI/ADR-RES): 28.6 µM (inactive) | GI50 (HCT-15): 17.3 µM | GI50 (SK-MEL-28): > 100 µM (inactive) | GI50 (IGROV-1): 14.7 µM (inactive) | GI50 (NCI-H460): 13.9 µM (inactive) | GI50 (OVCAR-3): 22.2 µM (inactive) | GI50 (CCRF-CEM): 13.1 µM (inactive) | GI50 (SW-620): 35.5 µM (inactive) | GI50 (OVCAR-5): 50.9 µM (inactive) | GI50 (HCC 2998): 12.2 µM (inactive) | GI50 (MDA-N): > 100 µM (inactive) | GI50 (HOP-92): 76 µM (inactive) | GI50 (A549): 38.5 µM (inactive) | GI50 (OVCAR-8): 31.8 µM (inactive) | GI50 (HL-60): 20.7 µM (inactive) | GI50 (SF-295): 75.3 µM (inactive) | GI50 (SK-MEL-5): 37.1 µM (inactive) | GI50 (T47D): 95.1 µM (inactive) | GI50 (Malme-3M): 35.9 µM (inactive) | GI50 (KM12): 50.8 µM (inactive) | GI50 (MDA-MB-435): 60 µM (inactive) | GI50 (Hs-578T): 59.4 µM (inactive) | GI50 (NCI-H226): 7.59 µM (inactive) | GI50 (HCT-116): 20.1 µM (inactive) | GI50 (EKVX): > 100 µM (inactive) | GI50 (SNB-19): 84.5 µM (inactive) | GI50 (UACC-257): 45.8 µM (inactive) | GI50 (RPMI-8226): 58.5 µM (inactive) | GI50 (LOX IMVI): 15.2 µM (inactive) | GI50 (UACC-62): 37.7 µM (inactive) | GI50 (NCI-H23): 52.5 µM (inactive) | GI50 (ACHN): 19.8 µM (inactive) | GI50 (COLO 205): 21.4 µM (inactive) | GI50 (K562): 40.9 µM (inactive) | GI50 (SK-MEL-2): > 100 µM (inactive) | GI50 (786-0): 19.5 µM (inactive) | GI50 (A498): 78.7 µM (inactive) | GI50 (HOP-62): 23 µM (inactive) | GI50 (BT-549): > 100 µM (inactive) | GI50 (SF-539): 57.5 µM (inactive) | GI50 (CAKI-1): 20.7 µM (inactive) | GI50 (U-251): 32 µM (inactive) | GI50 (DU-145): 30 µM (inactive) | GI50 (SR): 20.5 µM (inactive)
